Data: US20040097734A1, “Aryl- and heteroarylcarbonylpiperazines and their use for the treatment of benign and malignant oncoses” (priority 2002, published 2004)
Values after ≈ are worked out from the molar mass of the structure shown. Read-outs that look alike come from different tables or passages of the source.

Tests used:
[1] = test system: ovarian adenocarcinoma cell line SKOV-3; assay: XTT proliferation assay, SKOV-3; type: cell-based; conditions: Homo sapiens, SK-OV-3; SKOV-3 cells, 45 h incubation; read-out: XTT proliferation assay, EC50, SKOV3
Text: (§1) The substances according to the invention were investigated for their antiproliferative activity in a proliferation test on established tumor cell lines. The test used determines the cellular dehydrogenase activity and makes possible a determination of the cell vitality and indirectly the cell count. The cell lines used are the human cervical carcinoma cell line KB/HeLa, (ATCC CCL17), the ovarian adenocarcinoma cell line SKOV-3 (ATCC HTB77), the human glioblastoma cell line SF-268 (NCI 503138) and the lung carcinoma cell line NCI-H460 (NCI 503473). In addition, for the investigation of the cell cycle-specific action of the substance, an RKOp27 cell system was used (M. Schmidt et al. Oncogene 19(20):2423-9, 2000). RKO is a human colon carcinoma cell line, in which the cell cycle inhibitor p27^kip1 induced by means of the ecdysone expression system is expressed and can be led to a cell cycle arrest specifically in […]. A nonspecifically acting substance inhibits the proliferation independently of weather the RKO cell is or is not arrested in G1 or G2. Cell cycle-specific substances such as, for example, tubulin inhibitors are, however, only cytotoxic if cells are not arrested and the cell cycle is passed through. In table 1, the cytotoxic and/or growth-inhibiting activities of the compound described with/without expression of p27^kip1 are shown.
(§2) The adherently growing tumor cell lines KB/HeLa, SKOV-3, SF-268 and NCI-H460 were cultured under standard conditions in a fumigation incubator at 37° C., 5% CO2 and 95% atmospheric humidity. On experimental day 1, the cells are detached using trypsin/EDTA and pelleted by centrifugation. Subsequently, the cell pellet is resuspended in the respective culture medium at the corresponding cell count and reacted in a 96-well microtiter plate. The plates are then cultured overnight in the fumigation incubator. The test substances are prepared as 1 mg/ml stock solutions in DMSO and diluted to the appropriate concentrations on experimental day 2 using culture medium. The substances in culture medium are then added to the cells and incubated in the fumigation incubator for 45h. As a control, cells which are not treated with test substance are used. For the XTT assay, 1 mg/ml of XTT (sodium 3′-[1-(phenylaminocarbonyl)-3,4-tetrazolium]-bis(4-methoxy-6-nitro)benzenesulfonic acid) is dissolved in RPMI-1640 medium without Phenol Red. Additionally, a 0.383 mg/ml PMS (N-methyldibenzopyrazine methylsulfate) solution in phosphate-buffered saline solution (PBS) is prepared. On experimental day 4, 75 μl/well of XTT-PMS mixture is pipetted onto the cell plates which in the meantime have been incubated with the test substances for 45 h. For this, shortly before use, the XTT solution is mixed with the PMS solution in the ratio 50:1 (vol:vol). The cell plates are then incubated in the fumigation incubator for a further 3h and the optical density (OD490nm) is determined in a photometer. By means of the OD490nm determined, the percentage inhibition is calculated relative to the control and plotted semilogarithmically in the form of a concentration-action curve. The EC50 is calculated by means of a regression analysis from the concentration-action curve using the program Graphpad Prism.

[2] = test system: human glioblastoma cell line SF-268; assay: XTT proliferation assay, SF-268; type: cell-based; conditions: SF-268 cells, 45 h incubation
Text: as §1, §2

[3] = test system: RKOp27 human colon carcinoma cell line; assay: Cell cycle analysis by means of the RKOp27 model (XTT); type: cell-based; conditions: RKOp27, 45 h, RKOp27 cells, read-out: XTT proliferation assay, EC50, RKOP27
Text: as §1, §2
The assay is carried out in 96-well plates. […] By comparison of the activity on induced and noninduced cells, conclusions on the mechanism of action (cell cycle specificity) of the therapeutics can be drawn. […] are inoculated in approximately three-fold higher cell count, since division no longer takes place during the assay in comparison with uninduced cells (20000 cells/well induced, 6250 cells/well not induced). The controls are untreated cells (+/−induction). The induction is carried out with 3 μM muristerone A On the 1st day, the cells are exposed (+/− muristerone A) and incubated at 37° C. for 24h. […]

[4] = test system: human cervical carcinoma cell line KB/HeLa; assay: XTT proliferation assay, KB/HeLa; type: cell-based; conditions: KB/HeLa cells, 45 h incubation
Text: as §1, §2

bovine tubulin = assay: Tubulin polymerization assay; type: biochemical; conditions: average of two independent experiments; for Inhibition of tubulin polymerization, EC50, without MAPs: MAP-free bovine tubulin; for Inhibition of tubulin polymerization, EC50, with 30% MAPs: bovine tubulin with 30% MAPs
Protocol: Selected substances were tested for inhibition of the polymerization of bovine tubulin in an in-vitro test. In this test, tubulin purified by cycles of polymerization and depolymerization is employed, which is polymerized by addition of GTP and warming. In Table 2, the EC50 values of the inhibition of polymerization of tubulin with 30% associated proteins (MAPs) and of MAP-free tubulin are indicated.
The assay is carried out based on the method of Bollag et. al. Lyophilized bovine tubulin (cytoskeleton, ML113 tubulin 30% MAPs, TL238 tubulin MAP free) is dissolved in a concentration of 2 mg/ml (ML113 in 80 mM PIPES, 0.5 mM EGTA, 2 mM MgCl2, pH6.9, 1 mM GTP) or 5 mg/ml (TL238 in 80 mM PIPES, 1 mM EGTA, 0.5 mM MgCl2, 20% (v:v) glycerol pH 6.9, 1 mM GTP). The test substances are diluted in 10% DMSO (v:v) and 5 μl of the dilutions are transferred to a 96-well microtiter plate (Nunc, half area plate). After addition of 45 μl of the tubulin solution, the polymerization is determined at 340 nm in a Spectramax 190 microtiter plate reader (Molecular devices) by means of a kinetics program at 30 sec intervals over a period of 20 min. The resulting area under curve values are used for the calculation of the inhibition with respect to the untreated control and plotted semilogarithmically in the form of a concentration-action curve. The EC50 is calculated by means of a regression analysis from the concentration-action curve using the program Graphpad Prism.

[5] = test system: lung carcinoma cell line NCI-H460; assay: XTT proliferation assay, NCI-H460; type: cell-based; conditions: Homo sapiens; NCI-H460 cells, 45 h incubation
Text: as §1, §2

[6] = p27kip1 induced with 3 μM muristerone A (arrested)
[7] = without expression of p27kip1 (not induced)

Compound | EC50 [1] [µg/mL] | EC50 [2] [µg/mL] | EC50 [3, 6] [µg/mL] | EC50 [3, 7] [µg/mL] | EC50 [4] [µg/mL] | Inhibition of tubulin polymerization, EC50, without MAPs (bovine tubulin) [µg/mL] | Inhibition of tubulin polymerization, EC50, with 30% MAPs (bovine tubulin) [µg/mL] | EC50 [5] [µg/mL] | melting point [°C]
COc1cc(OC)cc(N2CCN(C(=O)C3c4ccccc4Oc4ccccc43)CC2)c1 [Compound 12, [4-(3,5-Dimethoxyphenyl)piperazin-1-yl]-(9H-xanthen-9-yl)methanone] | 0.029 (≈ 0.0674 µM) | 0.075 (≈ 0.174 µM) | > 3.16 | 0.058 (≈ 0.135 µM) | 0.08 (≈ 0.186 µM) | 1.71 | 1.16 | 0.064 (≈ 0.149 µM) | 
COc1cc(OC)cc(N2CCN(C(=O)c3nccc4ccccc34)CC2)c1 [Compound 8, [4-(3,5-Dimethoxyphenyl)piperazin-1-yl]isoquinolin-1-ylmethanone] | 0.287 (≈ 0.76 µM) | 0.775 (≈ 2.05 µM) | > 3.16 | 0.291 (≈ 0.771 µM) | 0.929 (≈ 2.46 µM) |  | 5.66 | 0.439 (≈ 1.16 µM) | 
COc1cccc(N2CCN(C(=O)c3ccnn3-c3ccccc3)CC2)c1 [Compound 14, [4-(3-Methoxyphenyl)piperazin-1-yl]-(2-phenyl-2H-pyrazol-3-yl)methanone] | 0.008 (≈ 0.0221 µM) | 0.009 (≈ 0.0248 µM) | > 3.16 | 0.006 (≈ 0.0166 µM) | 0.012 (≈ 0.0331 µM) |  | 0.46 | 0.005 (≈ 0.0138 µM) | 
CSc1nsc(SC)c1C(=O)N1CCN(c2cccc(C)n2)CC1 [Compound 7, (3,5-Bismethylsulfanylisothiazol-4-yl)-[4-(6-methylpyridin-2-yl)piperazin-1-yl]methanone] | 1.01 (≈ 2.65 µM) |  | > 3.16 | 1.2 (≈ 3.15 µM) | 2.71 (≈ 7.12 µM) |  |  | 1.54 (≈ 4.05 µM) | 
Cc1cccc(N2CCN(C(=O)c3ccnn3-c3ccccc3)CC2)n1 [Compound 15, [4-(6-Methylpyridin-2-yl)piperazin-1-yl]-(2-phenyl-2H-pyrazol-3-yl)methanone] | 0.018 (≈ 0.0518 µM) | 0.036 (≈ 0.104 µM) | > 3.16 | 0.022 (≈ 0.0633 µM) | 0.04 (≈ 0.115 µM) |  | 0.88 | 0.024 (≈ 0.0691 µM) | 
Cc1cc(C)cc(N2CCN(C(=O)c3cnnc4ccccc34)CC2)c1 [Compound 5, Cinnolin-4-yl-[4-(3,5-dimethylphenyl)piperazin-1-yl]methanone] | 0.496 (≈ 1.43 µM) | 0.474 (≈ 1.37 µM) | > 3.16 | 0.25 (≈ 0.722 µM) | 1.21 (≈ 3.5 µM) |  |  | 0.348 (≈ 1 µM) | 114
COc1cccc(N2CCN(C(=O)c3cccc4c3Cc3ccccc3-4)CC2)c1 [Compound 11, (9H-Fluoren-1-yl)-[4-(3-methoxyphenyl)piperazin-1-yl]methanone] |  |  |  |  |  |  |  |  | 124
O=C1c2ccccc2-c2c1cccc2C(=O)N1CCN(c2cccc(O)c2)CC1 [Compound 3, 4-[4-(3-Hydroxyphenyl)piperazine-1-carbonyl]fluoren-9-one] | 0.397 (≈ 1.03 µM) | 0.478 (≈ 1.24 µM) | > 3.16 | 0.726 (≈ 1.89 µM) | 4.32 (≈ 11.2 µM) |  | 4.77 | 0.853 (≈ 2.22 µM) | 
COc1cc(OC)cc(N2CCN(C(=O)c3cccc4c3-c3ccccc3C4=O)CC2)c1 [Compound 1, 4-[4-(3,5-Dimethoxyphenyl)piperazine-1-carbonyl]fluoren-9-one] | 0.4 (≈ 0.934 µM) | 0.309 (≈ 0.721 µM) | > 3.16 | 0.208 (≈ 0.485 µM) | 0.555 (≈ 1.3 µM) | 1.36 | 0.86 | 0.312 (≈ 0.728 µM) | 
COc1cc(OC)cc(N2CCN(C(=O)c3cccc4c3Cc3ccccc3-4)CC2)c1 [Compound 9, [4-(3,5-Dimethoxyphenyl)piperazin-1-yl]-(9H-fluoren-1-yl)methanone] | 0.341 (≈ 0.823 µM) | 0.692 (≈ 1.67 µM) | > 3.16 | 0.217 (≈ 0.524 µM) | 0.613 (≈ 1.48 µM) |  |  | 0.427 (≈ 1.03 µM) | 148
Cc1cccc(N2CCN(C(=O)c3cccc4c3-c3ccccc3C4=O)CC2)n1 [Compound 2, 4-[4-(6-Methylpyridin-2-yl)piperazine-1-carbonyl]fluoren-9-one] | 0.585 (≈ 1.53 µM) | 0.939 (≈ 2.45 µM) | > 3.16 | 0.326 (≈ 0.85 µM) | 2.59 (≈ 6.76 µM) |  |  | 0.886 (≈ 2.31 µM) | 
O=C(c1ccnn1-c1ccccc1)N1CCN(c2cccc(O)c2)CC1 [Compound 16, [4-(3-Hydroxyphenyl)piperazin-1-yl]-(2-phenyl-2H-pyrazol-3-yl)methanone] | 0.082 (≈ 0.235 µM) | 0.1 (≈ 0.287 µM) | > 3.16 | 0.064 (≈ 0.184 µM) | 0.147 (≈ 0.422 µM) |  | 4.20 | 0.087 (≈ 0.25 µM) | 
